{"source": "patent US10183015B2", "about": "“Heterocyclic compounds and methods of use” (Medivation Technologies LLC, priority 2015, dated 2019)", "key": {"[1]": {"tested_on": "diet-induced NASH obese insulin resistant mice", "test": "DIN mouse model: liver Sirius Red staining (% labeling, collagen deposition)", "assay_type": "in vivo", "conditions": "for Sirius red labeling: liver", "method": "(§1) Male C57Bl/6J mice (8 weeks old) were housed in enriched ventilated cages (31×12.5×12.7 cm) throughout the experimental phase. Animals' cages litters were changed at least once a week. Animal were housed 5 per cage on inverted 12-hour light cycle (at 09:00 am lights off), 22±2° C. and 55±10% relative humidity. The acclimation period was 20 days. During the acclimation period, all mice were fed a standard diet (RM1 (E) 801492, SDS) and tap water ad libitum. After the acclimation period, mice were fed with the DIN diet (60% fat, cholesterol enriched) and fructose-enriched tap water ad libitum until the end of the experiment.\n(§2) At 6 weeks of diet, mice were 4-hour fasted (09:00 am to 1:00 pm) and blood (150 μl/EDTA) was collected at 01:00 pm by retro-orbital bleeding under isoflurane anesthesia. Mice were then allocated in 2 homogenous groups (n=12/group) according to their plasma levels of ALT (average levels: 685U/L), AST (average levels: 627U/L) and HOMA-IR index (average value: 4.7), into 2 homogenous groups (see values at day 0 in Tables 15A and 15B ALT/AST and Tables 16A and 16B for HOMA-IR). Mice were then treated once daily by oral gavage with vehicle (Group 1) or Compound #37 at 20 mg/kg (Group 2) for 70 days.\nSlides having a single hepatic lobe section stained with H&E and […] were digitized using a Nanozoomer from Hamamatsu. Sections were evaluated with knowledge of groups. In agreement with the unchanged hepatic triglycerides levels, oil red O staining and % labeling was not changed with Compound #37. A substantial reduction in Sirius Red labeling was also observed, leading to a 61% reduction (p<0.001 vs. vehicle) in % labeling.\nTo investigate whether Compound #37 improves pre-existing steatosis/NASH pathology, a study was conducted using a 16-week diet-induced NASH mouse model. In this model, mice develop steatosis that progresses with inflammation and fibrosis that mimic many of the observed pathologies in human nonalcoholic fatty liver disease (NAFLD) and NASH (Hebbard & George, 2010). […]"}, "LDLR": {"tested_on": "LDLR", "test": "DIN mouse model: hepatic LDLR gene expression", "assay_type": "in vivo", "design": "key to LDLR 2^DDct: expression relative to vehicle group, normalized to 18S", "conditions": "liver, 20 mg/kg group", "method": "Gene expression analysis. Hepatic expression levels of genes involved in lipid metabolism (FAS, SREBP1, ACC1, SCD1), cholesterol metabolism (HMG-CoAR, LDLR), SREBP proteolysis (SCAP, INSIG1), ER stress (PERK), oxidative stress (NRF2), inflammation (MCP-1), and fibrosis (collagen 1α1) were quantified by RTqPCR. Expression level was normalized to 18S gene expression and relative expression to vehicle group was calculated with the […] method.\nas §1, §2\nHepatic expression levels of genes involved in lipid (FAS, SREBP1, ACC1, SCD1), cholesterol metabolism (HMG-CoAR, LDLR), in SREBP proteolysis (SCAP, INSIG1), in ER stress (PERK), oxidative stress (NRF2), and inflammation (MCP-1) were not changed. However, expression of collagen 1α1, involved in liver fibrosis, was reduced by 66% in mice treated with Compound #37 (p<0.05 vs. vehicle)."}, "ob/ob mice": {"tested_on": "ob/ob mice", "test": "ob/ob mice: liver Oil Red O staining", "assay_type": "in vivo, mouse", "conditions": "8 weeks", "method": "Groups of mice were either untreated (group 1) or treated for 8 weeks with vehicle (group 2), or with Compound #37 at 5 mg/kg (group 3), 10 mg/kg (group 4), or 20 mg/kg (group 5). Treatment was daily by oral gavage in vehicle (20% HPβCD). Values are presented as mean±standard error of the mean (sem). A t test was performed to compare the untreated group and the vehicle group. Then Compound #37-treated groups were compared to the vehicle-treated group with a 1-way ANOVA+Dunnett's post-test. […] For each test, a p<0.05 was considered significant. Of note, animal #39, group 1 was excluded from the statistical analysis, due to low values for all parameters measured. Some other values were considered as out-liners and excluded from the statistical analysis when the value was far below the mean minus 2 SD. Excluded values are marked with an asterisk in Tables 21-23."}, "[2]": {"conditions": "individual animals, vs vehicle mean, 20 mg/kg"}}, "note": "Several values for one entry are separate records, joined by “and”; a condition that tells them apart may be missing. Equal entries are not always repeated."}
{"smiles": "CC(C)Cc1cc(-c2nc(-c3ccc(NS(=O)(=O)C(F)(F)F)cc3Cl)cs2)ccn1", "note": "[Compound 37, N-(3-chloro-4-(2-(2-isobutylpyridin-4-yl)thiazol-4-yl)phenyl)-1,1,1-trifluoromethanesulfonamide]", "values": [{"measurement": "Sirius Red % labeling reduction", "setting": "[1]; 20 mg/kg, 70 days, p<0.001 vs. vehicle", "result": 61, "unit": "%"}, {"measurement": "Sirius red labeling", "setting": "[1]; 20 mg/kg group, mean, n 11", "result": 0.7, "unit": "%"}, {"measurement": "Sirius red labeling", "setting": "[1]; 20 mg/kg, individual animals", "result": "0.5% and 0.8% (4×) and 0.6% (2×) and 1.0% and 0.9% and 0.7% (2×)"}, {"measurement": "LDLR Dct", "setting": "LDLR; individual animals, normalised to 18S, 20 mg/kg", "result": "12.37 and 11.75 and 14.3 and 12.94 and 13.5 and 12.33 and 12.03 and 12.22 and 12.97 and 13.44 and 11.28"}, {"measurement": "LDLR 2^DDct", "setting": "LDLR; [2]", "result": "1.65 and 2.54 and 0.43 and 1.11 and 0.76 and 1.7 and 2.09 and 1.84 and 1.09 and 0.79 and 3.52"}, {"measurement": "LDLR DDct", "setting": "LDLR; [2]", "result": "−0.73 and −1.35 and 1.2 and −0.16 and 0.4 and −0.77 and −1.07 and −0.88 and −0.13 and 0.34 and −1.82"}, {"measurement": "LDLR (Ct)", "setting": "LDLR; individual animals, 20 mg/kg", "result": "24.92 (2×) and 24.3 and 27.14 and 25.37 and 25.85 and 23.76 and 24.73 and 24.47 and 24.99 and 23.63"}, {"measurement": "LDLR 2^DDct", "setting": "LDLR; mean, n 11", "result": 1.59}, {"measurement": "LDLR (Ct)", "setting": "LDLR; mean, n 11", "result": 24.9}, {"measurement": "LDLR DDct", "setting": "LDLR; mean, n 11", "result": "−0.45"}, {"measurement": "LDLR Dct", "setting": "LDLR; mean, n 11", "result": 12.6}, {"measurement": "liver oil-red-O quantification", "setting": "ob/ob mice; 5 mg/kg daily oral gavage, group mean", "result": 6.7, "unit": "%"}, {"measurement": "liver oil-red-O quantification", "setting": "ob/ob mice; 5 mg/kg daily oral gavage, individual animal values, 5 mg/kg", "result": "0.67% and 2.91% and 8.82% and 9.22% and 4.41% and 6.15% and 8.06% and 8.93% and 8.85% and 9.33%"}, {"measurement": "liver oil-red-O quantification", "setting": "ob/ob mice; 10 mg/kg daily oral gavage, group mean", "result": 13.23, "unit": "%"}, {"measurement": "liver oil-red-O quantification", "setting": "ob/ob mice; 10 mg/kg daily oral gavage, individual animal values, 10 mg/kg", "result": "19.18% and 18.46% and 13.25% and 3.65% and 8.46% and 8.67% and 16.07% and 17.12% and 16.00% and 11.43%"}, {"measurement": "liver oil-red-O quantification", "setting": "ob/ob mice; 20 mg/kg daily oral gavage, group mean", "result": 8.5, "unit": "%"}, {"measurement": "liver oil-red-O quantification", "setting": "ob/ob mice; 20 mg/kg daily oral gavage, individual animal values, 20 mg/kg", "result": "13.45% and 0.42% and 15.53% and 9.89% and 4.95% and 8.17% and 4.74% and 7.06% and 15.71% and 5.38%"}]}
